Results reported in article PMC5064235, “Structure-Based Design of Novel Tetrahydro-Beta-Carboline Derivatives with a Hydrophilic Side Chain as Potential Phosphodiesterase Inhibitors” (Scientia Pharmaceutica, 2015).

How the values were obtained:
recombinant human PDE5 = target: T1, recombinant human PDE5 (Homo sapiens, UniProt O76074); test: In vitro PDE5 inhibitory activity (IMAP FP phosphodiesterase assay); type: biochemical; details: purified PDE5, 50 nM TAMRA-cGMP, 1.5 h at 30 °C; 10 concentrations, at least two replicates; read-out: PDE5 Inhibition IC50
T1 construct: purchased BPS Biosciences, San Diego, CA, USA
Method: Phosphodiesterase Assay: 5 U/mL of purified PDE5 (BPS Biosciences, San Diego, CA, USA) was added to the wells of black 96-well non-binding plates. Immediately, the protein was treated with the compound or vehicle control and 50 nM TAMRA-cGMP and 50 nM Fluourescein-cAMP (Molecular Devices, Sunnyvale, CA, USA) were added to each assay well. The plates were incubated for 1.5 h at 30 °C. After incubation, the IMAP FP Phosphodiesterase Evaluation Assay (Molecular Devices, Sunnyvale, CA, USA) binding reagent was added to each well and the plates were incubated for an additional 30 min at 30 °C. FP was measured according to manufacturer’s specifications using a Biotech Synergy 4 plate reader. PDE activity was expressed by an IC50 value (50% inhibitory concentration). Data analysis was done through dose-response analysis, which was repeated at least twice to confirm the reproducibility of the IC50 values.
All the synthesized final THβC compounds were tested for their ability to inhibit recombinant human PDE5. Most of the compounds were evaluated in two steps. The first step was the determination of the percentage inhibition at a screening dose of 10 μM performed in triplicate. For compounds displaying a percentage of inhibition >50%, the IC50 was then determined by testing a range of 10 concentrations with at least two replicates per concentration (Table 2).

SMILES | IC50 (recombinant human PDE5) [nM] | melting point [°C]
O=C1[C@@H]2Cc3c([nH]c4ccccc34)[C@@H](c3ccc(Cl)cc3)N2C(=O)CN1CCCCO [Compound 6o, (6R,12aS)-6-(4-Chloro-phenyl)-2-(4-hydroxy-butyl)-2,3,6,7,12,12a-hexahydropyrazino[1’,2’:1,6]pyrido[3,4-b]indole-1,4-dione] | 2310 | 199 to 203
O=C1[C@@H]2Cc3c([nH]c4ccccc34)[C@@H](c3ccc(Br)cc3)N2C(=O)CN1CCO [Compound 7m, (6R,12S)-6-(4-Bromo-phenyl)-2-(2-hydroxy-ethyl)-2,3,6,7,12,12a-hexahydro-pyrazino[1’,2’:1,6]pyrido[3,4-b]indole-1,4-dione] | 600 | 
O=C1[C@@H]2Cc3c([nH]c4ccccc34)[C@H](c3ccc(Br)cc3)N2C(=O)CN1CCCCO [Compound 7k, (6S,12S)-6-(4-Bromo-phenyl)-2-(4-hydroxy-butyl)-2,3,6,7,12,12a-hexahydropyrazino[1’,2’:1,6]pyrido[3,4-b]indole-1,4-dione] | > 10000 | 
O=C1[C@@H]2Cc3c([nH]c4ccccc34)[C@H](c3ccc(Cl)cc3)N2C(=O)CN1CCO [Compound 6i, (6S,12aS)-6-(4-Chloro-phenyl)-2-(2-hydroxy-ethyl)-2,3,6,7,12,12a-hexahydro-pyrazino[1’,2’:1,6]pyrido[3,4-b]indole-1,4-dione] | > 10000 | 231 to 233
NCCN1CC(=O)N2[C@H](c3ccc(Br)cc3)c3[nH]c4ccccc4c3C[C@H]2C1=O [Compound 7n, (6R,12S)-2-(2-Amino-ethyl)-6-(4-bromo-phenyl)-2,3,6,7,12,12a-hexahydro-pyrazino[1’,2’:1,6]pyrido[3,4-b]indole-1,4-dione] | 900 | 
O=C1[C@H]2Cc3c([nH]c4ccccc34)[C@@H](c3ccc(Br)cc3)N2C(=O)CN1CCCCO [Compound 7c, (6R,12R)-6-(4-Bromo-phenyl)-2-(4-hydroxy-butyl)-2,3,6,7,12,12a-hexahydropyrazino[1’,2’:1,6]pyrido[3,4-b]indole-1,4-dione] | 100 | 
O=C1[C@H]2Cc3c([nH]c4ccccc34)[C@@H](c3ccc(Br)cc3)N2C(=O)CN1CCO [Compound 7a, (6R,12R)-6-(4-Bromo-phenyl)-2-(2-hydroxy-ethyl)-2,3,6,7,12,12a-hexahydro-pyrazino[1’,2’:1,6]pyrido[3,4-b]indole-1,4-dione] | 840 | 
NCCCCN1CC(=O)N2[C@@H](c3ccc(Cl)cc3)c3[nH]c4ccccc4c3C[C@H]2C1=O [Compound 6l, (6S,12S)-2-(4-Amino-butyl)-6-(4-chloro-phenyl)-2,3,6,7,12,12a-hexahydro-pyrazino[1’,2’:1,6]pyrido[3,4-b]indole-1,4-dione] | > 10000 | 
O=C1[C@H]2Cc3c([nH]c4ccccc34)[C@@H](c3ccc(Cl)cc3)N2C(=O)CN1CCO [Compound 6a, (6R,12aR)6-(4-Chloro-phenyl)-2-(2-hydroxy-ethyl)-2,3,6,7,12,12a-hexahydro-pyrazino[1’,2’:1,6]pyrido[3,4-b]indole-1,4-dione] | > 10000 | 230 to 233
NCCN1CC(=O)N2[C@@H](c3ccc(Br)cc3)c3[nH]c4ccccc4c3C[C@H]2C1=O [Compound 7j, (6S,12S)-2-(2-Amino-ethyl)-6-(4-bromo-phenyl)-2,3,6,7,12,12a-hexahydro-pyrazino[1’,2’:1,6]pyrido[3,4-b]indole-1,4-dione] | > 10000 | 
O=C1[C@H]2Cc3c([nH]c4ccccc34)[C@H](c3ccc(Br)cc3)N2C(=O)CN1CCO [Compound 7e, (6S,12R)-6-(4-Bromo-phenyl)-2-(2-hydroxy-ethyl)-2,3,6,7,12,12a-hexahydro-pyrazino[1’,2’:1,6]pyrido[3,4-b]indole-1,4-dione] | > 10000 | 
NCCCCN1CC(=O)N2[C@H](c3ccc(Br)cc3)c3[nH]c4ccccc4c3C[C@H]2C1=O [Compound 7p, (6R,12S)-2-(4-Amino-butyl)-6-(4-bromo-phenyl)-2,3,6,7,12,12a-hexahydro-pyrazino[1’,2’:1,6]pyrido[3,4-b]indole-1,4-dione] | 3500 | 
NCCCCN1CC(=O)N2[C@@H](c3ccc(Br)cc3)c3[nH]c4ccccc4c3C[C@H]2C1=O [Compound 7l, (6S,12S)-2-(4-Amino-butyl)-6-(4-bromo-phenyl)-2,3,6,7,12,12a-hexahydro-pyrazino[1’,2’:1,6]pyrido[3,4-b]indole-1,4-dione] | > 10000 | 
NCCCCN1CC(=O)N2[C@@H](c3ccc(Br)cc3)c3[nH]c4ccccc4c3C[C@@H]2C1=O [Compound 7h, (6S,12R)-2-(4-Amino-butyl)-6-(4-bromo-phenyl)-2,3,6,7,12,12a-hexahydro-pyrazino[1’,2’:1,6]pyrido[3,4-b]indole-1,4-dione] | 3200 | 
O=C1[C@@H]2Cc3c([nH]c4ccccc34)[C@H](c3ccc(Br)cc3)N2C(=O)CN1CCO [Compound 7i, (6S,12S)-6-(4-Bromo-phenyl)-2-(2-hydroxy-ethyl)-2,3,6,7,12,12a-hexahydro-pyrazino[1’,2’:1,6]pyrido[3,4-b]indole-1,4-dione] | > 10000 | 
O=C1[C@@H]2Cc3c([nH]c4ccccc34)[C@@H](c3ccc(Br)cc3)N2C(=O)CN1CCCCO [Compound 7o, (6R,12S)-6-(4-Bromo-phenyl)-2-(4-hydroxy-butyl)-2,3,6,7,12,12a-hexahydropyrazino[1’,2’:1,6]pyrido[3,4-b]indole-1,4-dione] | 820 | 
NCCCCN1CC(=O)N2[C@H](c3ccc(Cl)cc3)c3[nH]c4ccccc4c3C[C@@H]2C1=O [Compound 6d, (6R,12R)-2-(4-Amino-butyl)-6-(4-chloro-phenyl)-2,3,6,7,12,12a-hexahydro-pyrazino[1’,2’:1,6]pyrido[3,4-b]indole-1,4-dione] | > 10000 | 
NCCN1CC(=O)N2[C@@H](c3ccc(Br)cc3)c3[nH]c4ccccc4c3C[C@@H]2C1=O [Compound 7f, (6S,12R)-2-(2-Amino-ethyl)-6-(4-bromo-phenyl)-2,3,6,7,12,12a-hexahydro-pyrazino[1’,2’:1,6]pyrido[3,4-b]indole-1,4-dione] | > 10000 | 
NCCCCN1CC(=O)N2[C@H](c3ccc(Br)cc3)c3[nH]c4ccccc4c3C[C@@H]2C1=O [Compound 7d, (6R,12R)-2-(4-Amino-butyl)-6-(4-bromo-phenyl)-2,3,6,7,12,12a-hexahydro-pyrazino[1’,2’:1,6]pyrido[3,4-b]indole-1,4-dione] | 2700 | 
NCCN1CC(=O)N2[C@H](c3ccc(Br)cc3)c3[nH]c4ccccc4c3C[C@@H]2C1=O [Compound 7b, (6R,12R)-2-(2-Amino-ethyl)-6-(4-bromo-phenyl)-2,3,6,7,12,12a-hexahydro-pyrazino[1’,2’:1,6]pyrido[3,4-b]indole-1,4-dione] | 2400 | 
NCCCCN1CC(=O)N2[C@H](c3ccc(Cl)cc3)c3[nH]c4ccccc4c3C[C@H]2C1=O [Compound 6p, (6R,12S)-2-(4-Amino-butyl)-6-(4-chloro-phenyl)-2,3,6,7,12,12a-hexahydro-pyrazino[1’,2’:1,6]pyrido[3,4-b]indole-1,4-dione] | > 10000 | 
O=C1[C@H]2Cc3c([nH]c4ccccc34)[C@H](c3ccc(Br)cc3)N2C(=O)CN1CCCCO [Compound 7g, (6S,12R)-6-(4-Bromo-phenyl)-2-(4-hydroxy-butyl)-2,3,6,7,12,12a-hexahydropyrazino[1’,2’:1,6]pyrido[3,4-b]indole-1,4-dione] | > 10000 | 
